Data taken from EP3386957B1, “PROCESS FOR THE PURIFICATION OF 10-DEACETYL BACCATIN III” (RotaChrom Technológiai és Szolgálató Zártkörüen Müködö …, priority 2015, dated 2017).

Assay: Selectivity of CPC solvent systems for contaminants of 10-DAB III (contaminants identified by HPLC relative retention time)
Format: physicochemical
Conditions: CPC solvent mixture MTBE/acetone/water; Table 3
Description: The HPLC methods used for the analysis: • 1. Isocratic method • Column: Dr Maisch ReproSil-Pur C18-AQ (150x4.0 mm, 3 um) • Column thermostat: 35 °C • Flow rate: 0.75 ml/min • Eluent: 28% acetonitrile, 72% water, 0.1% acetic acid • Detection wavelength: 230 +/- 5 nm • Injected volume: 10 ul • 2. Gradient method • Colum: Phenomenex Kinetex C18 (100x3.0 mm, 2.6 um) • Column thermostat: 35 °C • Flow rate: 0.7 ml/min • Eluent A: water + 0.1% acetic acid Eluent B: acetonitrile Gradient program: 0 min 20% B, 5 min: 30% B, 11 min 40% B, 13 min 40% B, 14 min 20% B, 18 min 20% B • Detection wavelength: 230 +/- 5 nm • Injected volume: 5 ul
Table 3: the selectivity matrix of the individual methods according to the invention

**Q.** With `CC(=O)O[C@@]12CO[C@@H]1C[C@H](O)[C@@]1(CO)C(=O)[C@H](O)C3=C(C)[C@@H](O)C[C@@](O)([C@@H](OC(=O)c4ccccc4)[C@H]21)C3(C)C` [RRT=0.48, 19-OH-10-deacetylbaccatin III] as the compound, how does the selectivity read?
**A.** Its selectivity is “+++ (high selectivity)”.
